Results published in ChEMBL document CHEMBL1136991, “Novel potent BRAF inhibitors: toward 1 nM compounds through optimization of the central phenyl ring” (J Med Chem, 2009).

Columns and labels:
[1] = target: T1, Serine/threonine-protein kinase BRSK2 (Homo sapiens) (UniProt Q8IWQ3); test: Inhibition of BRSK2 at 1 uM relative to control
T1 sequence (whole entry): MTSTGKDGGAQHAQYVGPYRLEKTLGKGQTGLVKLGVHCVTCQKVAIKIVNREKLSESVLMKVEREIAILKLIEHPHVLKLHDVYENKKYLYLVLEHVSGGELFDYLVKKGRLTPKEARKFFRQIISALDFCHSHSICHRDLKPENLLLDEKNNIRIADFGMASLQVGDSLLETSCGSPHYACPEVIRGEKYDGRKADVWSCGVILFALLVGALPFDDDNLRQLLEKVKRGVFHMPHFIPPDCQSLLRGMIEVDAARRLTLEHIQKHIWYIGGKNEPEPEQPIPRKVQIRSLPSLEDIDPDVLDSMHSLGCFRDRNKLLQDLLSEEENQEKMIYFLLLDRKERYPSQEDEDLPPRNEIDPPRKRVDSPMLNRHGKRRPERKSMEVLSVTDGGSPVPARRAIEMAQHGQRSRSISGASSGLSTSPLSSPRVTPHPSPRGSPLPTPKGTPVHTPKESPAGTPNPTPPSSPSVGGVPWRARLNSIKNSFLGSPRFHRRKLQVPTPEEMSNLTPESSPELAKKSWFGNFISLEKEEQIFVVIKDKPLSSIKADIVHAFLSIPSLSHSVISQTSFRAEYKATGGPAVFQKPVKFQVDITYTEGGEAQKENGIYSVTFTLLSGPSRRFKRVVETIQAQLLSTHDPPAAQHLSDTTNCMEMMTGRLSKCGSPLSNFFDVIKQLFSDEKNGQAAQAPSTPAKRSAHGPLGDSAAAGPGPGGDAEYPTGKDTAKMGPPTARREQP

[2] = target: T2, MAP kinase-activated protein kinase 5 (Homo sapiens) (UniProt Q8IW41); test: Inhibition of PRAK at 1 uM relative to control
T2 sequence (whole entry): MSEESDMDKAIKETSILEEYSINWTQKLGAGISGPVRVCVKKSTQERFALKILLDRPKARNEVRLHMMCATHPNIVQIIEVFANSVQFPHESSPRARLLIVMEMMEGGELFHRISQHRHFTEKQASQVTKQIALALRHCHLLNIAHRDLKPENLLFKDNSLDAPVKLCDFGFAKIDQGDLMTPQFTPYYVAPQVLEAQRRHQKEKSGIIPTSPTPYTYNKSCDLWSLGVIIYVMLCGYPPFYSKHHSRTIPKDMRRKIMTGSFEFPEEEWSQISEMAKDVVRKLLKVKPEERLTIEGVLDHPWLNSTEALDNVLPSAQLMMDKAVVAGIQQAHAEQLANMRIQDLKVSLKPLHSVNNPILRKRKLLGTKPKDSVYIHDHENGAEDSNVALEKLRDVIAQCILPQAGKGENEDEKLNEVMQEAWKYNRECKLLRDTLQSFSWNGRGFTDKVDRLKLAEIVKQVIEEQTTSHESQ

[3] = target: RAC-beta serine/threonine-protein kinase (Homo sapiens) (UniProt P31751); test: Inhibition of PKBbeta at 1 uM relative to control
[4] = target: T3, Serine/threonine-protein kinase Sgk1 (Homo sapiens) (UniProt O00141); test: Inhibition of SGK1 at 1 uM relative to control
T3 sequence (whole entry): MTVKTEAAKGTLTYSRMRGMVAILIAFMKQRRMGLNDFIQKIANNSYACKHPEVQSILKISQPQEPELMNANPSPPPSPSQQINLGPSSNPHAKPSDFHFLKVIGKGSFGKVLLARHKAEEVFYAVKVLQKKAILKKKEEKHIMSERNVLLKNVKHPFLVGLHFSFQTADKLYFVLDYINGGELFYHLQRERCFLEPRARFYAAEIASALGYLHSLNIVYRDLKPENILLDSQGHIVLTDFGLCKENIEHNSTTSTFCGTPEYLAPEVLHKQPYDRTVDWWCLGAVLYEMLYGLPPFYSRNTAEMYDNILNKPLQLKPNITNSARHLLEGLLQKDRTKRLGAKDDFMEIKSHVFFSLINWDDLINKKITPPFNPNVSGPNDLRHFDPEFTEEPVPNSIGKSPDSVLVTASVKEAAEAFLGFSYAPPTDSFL

[5] = target: Ribosomal protein S6 kinase alpha-3 (Homo sapiens) (UniProt P51812); test: Inhibition of RSK2 at 1 uM relative to control
[6] = target: T4, Serine/threonine-protein kinase 3 (Homo sapiens) (UniProt Q13188); test: Inhibition of MST2 at 1 uM relative to control
T4 sequence (whole entry): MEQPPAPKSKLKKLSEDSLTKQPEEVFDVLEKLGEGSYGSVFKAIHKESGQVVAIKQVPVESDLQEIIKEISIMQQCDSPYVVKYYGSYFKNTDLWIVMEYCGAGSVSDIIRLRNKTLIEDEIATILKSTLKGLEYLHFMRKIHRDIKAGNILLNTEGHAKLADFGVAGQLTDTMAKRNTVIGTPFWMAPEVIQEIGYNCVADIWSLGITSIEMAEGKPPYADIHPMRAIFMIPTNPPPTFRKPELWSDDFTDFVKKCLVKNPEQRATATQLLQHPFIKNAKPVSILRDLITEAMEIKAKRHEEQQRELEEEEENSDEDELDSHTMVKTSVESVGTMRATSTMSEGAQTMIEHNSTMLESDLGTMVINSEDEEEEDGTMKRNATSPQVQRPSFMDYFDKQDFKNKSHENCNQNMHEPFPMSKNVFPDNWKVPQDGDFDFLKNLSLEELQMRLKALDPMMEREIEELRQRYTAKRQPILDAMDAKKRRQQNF

[7] = target: Cyclin-dependent kinase 2 (Homo sapiens) (UniProt P24941); test: Inhibition of CDK2/cyclin A at 1 uM relative to control
[8] = target: T5, Dual specificity tyrosine-phosphorylation-regulated kinase 3 (Homo sapiens) (UniProt O43781); test: Inhibition of DYRK3 at 1 uM relative to control
T5 sequence (whole entry): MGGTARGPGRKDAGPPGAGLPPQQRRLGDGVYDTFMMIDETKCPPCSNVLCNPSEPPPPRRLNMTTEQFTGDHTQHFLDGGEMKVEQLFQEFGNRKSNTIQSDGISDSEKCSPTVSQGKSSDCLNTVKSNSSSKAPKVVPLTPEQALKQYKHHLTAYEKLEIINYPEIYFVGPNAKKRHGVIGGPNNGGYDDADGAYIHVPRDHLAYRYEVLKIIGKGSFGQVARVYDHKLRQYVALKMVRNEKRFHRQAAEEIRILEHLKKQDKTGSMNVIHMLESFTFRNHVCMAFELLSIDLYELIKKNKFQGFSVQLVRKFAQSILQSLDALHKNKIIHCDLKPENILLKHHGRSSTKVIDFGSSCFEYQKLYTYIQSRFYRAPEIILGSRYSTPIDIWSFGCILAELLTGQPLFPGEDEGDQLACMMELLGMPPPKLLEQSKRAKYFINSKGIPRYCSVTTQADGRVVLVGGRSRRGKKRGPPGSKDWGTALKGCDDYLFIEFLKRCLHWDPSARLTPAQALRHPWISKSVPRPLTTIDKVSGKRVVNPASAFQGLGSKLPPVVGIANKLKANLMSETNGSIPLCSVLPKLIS

Chain of RAC-beta serine/threonine-protein kinase (Homo sapiens) (P31751 whole entry): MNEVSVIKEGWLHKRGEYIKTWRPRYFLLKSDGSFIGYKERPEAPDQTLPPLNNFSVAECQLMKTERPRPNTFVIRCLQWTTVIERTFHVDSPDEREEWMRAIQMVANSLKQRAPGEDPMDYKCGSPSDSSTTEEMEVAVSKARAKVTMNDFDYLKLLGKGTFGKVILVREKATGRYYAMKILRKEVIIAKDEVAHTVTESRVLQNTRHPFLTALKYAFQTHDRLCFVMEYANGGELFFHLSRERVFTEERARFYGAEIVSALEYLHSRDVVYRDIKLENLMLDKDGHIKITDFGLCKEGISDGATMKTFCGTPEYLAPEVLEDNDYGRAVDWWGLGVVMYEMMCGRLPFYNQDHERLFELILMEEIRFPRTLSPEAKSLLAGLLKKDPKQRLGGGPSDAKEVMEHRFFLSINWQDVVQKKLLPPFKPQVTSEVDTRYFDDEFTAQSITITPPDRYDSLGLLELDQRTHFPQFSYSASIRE
Chain of Ribosomal protein S6 kinase alpha-3 (Homo sapiens) (P51812 whole entry): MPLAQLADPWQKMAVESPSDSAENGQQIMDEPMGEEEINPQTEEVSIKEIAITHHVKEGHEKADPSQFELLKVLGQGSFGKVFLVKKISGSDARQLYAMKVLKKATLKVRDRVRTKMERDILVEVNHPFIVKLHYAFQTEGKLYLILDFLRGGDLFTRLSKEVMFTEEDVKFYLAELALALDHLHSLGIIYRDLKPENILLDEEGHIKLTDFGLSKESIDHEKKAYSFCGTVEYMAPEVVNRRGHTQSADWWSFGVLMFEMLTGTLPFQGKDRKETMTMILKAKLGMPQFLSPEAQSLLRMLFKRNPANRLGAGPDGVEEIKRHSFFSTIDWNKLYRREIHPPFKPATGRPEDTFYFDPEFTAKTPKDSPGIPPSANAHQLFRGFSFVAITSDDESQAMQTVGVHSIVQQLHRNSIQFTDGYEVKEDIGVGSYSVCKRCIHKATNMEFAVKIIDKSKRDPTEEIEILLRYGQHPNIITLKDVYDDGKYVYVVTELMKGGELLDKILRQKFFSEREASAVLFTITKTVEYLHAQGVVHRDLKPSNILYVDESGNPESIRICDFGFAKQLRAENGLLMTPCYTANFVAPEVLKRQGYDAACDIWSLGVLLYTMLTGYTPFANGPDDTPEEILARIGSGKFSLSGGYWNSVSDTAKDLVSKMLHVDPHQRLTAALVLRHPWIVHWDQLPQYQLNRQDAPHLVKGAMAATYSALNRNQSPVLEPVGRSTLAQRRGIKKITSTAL

| residual activity [1] [%] | residual activity [2] [%] | residual activity [3] [%] | residual activity [4] [%] | residual activity [5] [%] | residual activity [6] [%] | residual activity [7] [%] | residual activity [8] [%] | SMILES |
| --- | --- | --- | --- | --- | --- | --- | --- | --- |
| 75 | 75 | 75 | 100 | 75 | 75 | 100 | 75 | CC(C)(C)c1cccc(NC(=O)Nc2ccc(Oc3ccnc4[nH]c(=O)[nH]c34)c3ccccc23)c1 |
| 50 | 75 | 100 | 100 | 100 | 100 | 100 | 100 | O=C(Nc1cc(C(F)(F)F)ccc1F)Nc1ccc(Oc2ccnc3[nH]c(=O)[nH]c23)c2ccccc12 |
| 50 | 75 | 100 | 100 | 100 | 75 | 100 | 75 | CSc1cc(Oc2ccnc3[nH]c(=O)[nH]c23)ccc1NC(=O)Nc1cccc(C(F)(F)F)c1 |
